Measurements as given in PMC9291647, “Discovery of novel mRNA demethylase FTO inhibitors against esophageal cancer” (Journal of Enzyme Inhibition and Medicinal Chemistry, 2022).

Biological target: fat mass and obesity-associated protein (FTO) (Homo sapiens, UniProt Q9C0B1)
Assay: FTO demethylase assay with ssRNA substrate, nucleosides detected by LC/MS
Format: biochemical

Chain of fat mass and obesity-associated protein (FTO) (Q9C0B1 whole entry): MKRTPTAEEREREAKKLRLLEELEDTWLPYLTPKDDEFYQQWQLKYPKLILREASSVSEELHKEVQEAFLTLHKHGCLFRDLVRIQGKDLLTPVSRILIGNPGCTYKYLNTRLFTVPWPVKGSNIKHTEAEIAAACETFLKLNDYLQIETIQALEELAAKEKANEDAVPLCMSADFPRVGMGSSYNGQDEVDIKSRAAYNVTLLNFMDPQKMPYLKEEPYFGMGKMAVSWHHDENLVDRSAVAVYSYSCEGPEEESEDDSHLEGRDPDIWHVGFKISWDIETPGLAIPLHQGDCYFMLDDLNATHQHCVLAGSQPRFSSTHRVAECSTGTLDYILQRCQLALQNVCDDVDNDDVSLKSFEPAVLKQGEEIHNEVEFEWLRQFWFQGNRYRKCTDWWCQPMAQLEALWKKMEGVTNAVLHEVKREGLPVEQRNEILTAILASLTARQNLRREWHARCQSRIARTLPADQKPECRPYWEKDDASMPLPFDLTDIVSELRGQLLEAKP

SMILES	IC50 [µM]
COc1c(C)cnc(Cn2cc(CNC(=O)c3c(F)c(F)c(F)c(F)c3F)nn2)c1C [C6, 2,3,4,5,6-Pentafluoro-N-((1-((4-methoxy-3,5-dimethylpyridin-2-yl)methyl)-1H-1,2,3-triazol-4-yl)methyl)benzamide]	0.78
O=C(NCc1cn(Cc2nc3ccccc3[nH]2)nn1)c1c(F)c(F)c(F)c(F)c1F [C8, N-((1-((1H-benzo[d]imidazol-2-yl)methyl)-1H-1,2,3-triazol-4-yl)methyl)-2,3,4,5,6-pentafluorobenzamide]	8.67
